# From ChEMBL document CHEMBL2390877, “Structural requirements for inhibitory effects of bisphenols on the activity of the sarco/endoplasmic reticulum calcium ATPase” (Bioorg Med Chem, 2013)
# Activity calls are given as the source filed them. The calls are words filed in the database; no cut-off is given here.
# Columns and labels:
# [1] = Inhibition of rabbit skeletal muscle sarco/endoplasmic reticulum calcium ATPase assessed as inhibition of ATP hydrolysis by spectrophotometric analysis; parameters: species or system Oryctolagus cuniculus
# Homo sapiens = species: Homo sapiens; test: Inhibition of sarco/endoplasmic reticulum calcium ATPase in human GM08333 cells assessed as inhibition of calcium ion uptake at 50 uM measured for 1 min by Fura-2AM staining assay; format: cell-based
# Serum = test: Drug uptake in human serum; format: ADME, cell-free
Structure (SMILES),IC50 [1],IC50 ([1]; read-out: IC50) [µM],further results
Nc1ccc(C(c2ccc(N)cc2)(C(F)(F)F)C(F)(F)F)cc1,Not Active,,
CC(C)(c1ccc(O)c(C2CCCCC2)c1)c1ccc(O)c(C2CCCCC2)c1,,94,inhibition (Homo sapiens): Active
Nc1ccc(C2(c3ccc(N)cc3)CCCCC2)cc1,Not Active,,
CC(C)(c1cc(Br)c(OCCO)c(Br)c1)c1cc(Br)c(OCCO)c(Br)c1,Not Active,,
Cc1cc(C(C)(C)c2cc(C)c(O)c(C)c2)cc(C)c1O,,2.6,
CC(C)(c1cc(Br)c(O)c(Br)c1)c1cc(Br)c(O)c(Br)c1,,4.7,Drug uptake (Serum): 0.3 µM; inhibition (Homo sapiens): Active
CC(C)(c1ccc(O)c(-c2ccccc2)c1)c1ccc(O)c(-c2ccccc2)c1,,91,inhibition (Homo sapiens): Active
Oc1c(Cl)cc(Cl)cc1Cc1cc(Cl)cc(Cl)c1O,,31,inhibition (Homo sapiens): Active
Oc1ccc(C2(c3ccc(O)cc3)CCCCC2)cc1,,27,
Oc1ccc(C(c2ccc(O)cc2)(C(F)(F)F)C(F)(F)F)cc1,Not Active,,
C=CCc1cc(C(C)(C)c2ccc(O)c(CC=C)c2)ccc1O,,2.2,
Cc1cc(C(C)(C)c2ccc(O)c(C)c2)ccc1O,,24,
Oc1ccc(Cc2ccc(O)cc2)cc1,Not Active,,
O=C(c1ccc(O)cc1)c1ccc(O)cc1,,200,
CC(c1ccc(O)cc1)c1ccc(O)cc1,,90,
CC(C)(c1ccc(O)cc1)c1ccc(O)cc1 [BISPHENOL A],,140,
CC(CCC(=O)O)(c1cc(Cl)c(O)c(Cl)c1)c1cc(Cl)c(O)c(Cl)c1,,25,
Oc1c(Cl)cc(Cl)c(Cl)c1Cc1c(O)c(Cl)cc(Cl)c1Cl [HEXACHLOROPHENE],,4,inhibition (Homo sapiens): Active
Oc1c(F)cc(C(c2cc(F)c(O)c(F)c2)(C(F)(F)F)C(F)(F)F)cc1F,,2.8,
CC(C)c1cc(C(C)(C)c2ccc(O)c(C(C)C)c2)ccc1O,,3.4,
CC(C)(C)c1cc(Cc2cc(C(C)(C)C)c(O)c(C(C)(C)C)c2)cc(C(C)(C)C)c1O,,16,
CC(C)(c1cc(Br)c(OCC2CO2)c(Br)c1)c1cc(Br)c(OCC2CO2)c(Br)c1 (stereo not drawn),Not Active,,
Cc1ccc(O)c(Cc2cc(C)ccc2O)c1,,300,
CC(C)(c1cc(N)c(O)c(N)c1)c1cc(N)c(O)c(N)c1,Not Active,,
Nc1cc(C(c2ccc(O)c(N)c2)(C(F)(F)F)C(F)(F)F)ccc1O,Not Active,,
CC(C)(c1cc(Cl)c(O)c(Cl)c1)c1cc(Cl)c(O)c(Cl)c1,,5.5,inhibition (Homo sapiens): Active
